Laboratory results from patent publication US9187462B2, “Substituted quinazolines as serine/threonine kinase inhibitors” (Array BioPharma Inc., priority 2011, dated 2015).
Like-named read-outs stand apart in the source and are kept apart here.

Biological target: human ERK-2 (Mitogen Activated Kinase 1) (Homo sapiens (Human), UniProt P28482)
Test: ERK-2 Enzymatic Assay
Format: biochemical
Settings: 5 nM ERK-2 enzyme, 25 μM ATP, Omnia peptide S/T17, single assay or mean of multiple assays
Description: Compounds were tested in an enzymatic assay using human ERK-2 (Mitogen Activated Kinase 1), recombinantly expressed as an N-terminal 6-His fusion protein in E. coli and corresponding to aa 8-360. The substrate used was the fluorescent Omnia peptide S/T17 (Invitrogen of Carlsbad, Calif.; Cat. KNZ1171C). Test compounds were diluted in DMSO in 3-fold serial dilutions at 100× final concentrations. […] The assay was run at ambient temperature in a white 384-well polypropylene plate (Nunc, Inc of Naperville, Ill.; Cat. 267462) collecting data every 50 seconds for approximately 30 minutes on an Envision plate reader (PerkinElmer, Inc. of Waltham, Mass.); Excitation 340 nm/Emission 495 nm. The data collected from each well was fit to a straight line and the resulting rates were used to calculate percent of control. Percent of control was plotted against compound concentration and IC50 values were determined using a four-parameter fit. Representative data is in TABLE I and TABLE II. The reported IC50 may be from a single assay or the mean of multiple assays.

[1] = read-out: IC50 (ERK-2 Enzymatic Assay), TABLE I
[2] = read-out: IC50 (ERK-2 Enzymatic Assay), TABLE II

Sequence of human ERK-2 (Mitogen Activated Kinase 1) (P28482 8-360): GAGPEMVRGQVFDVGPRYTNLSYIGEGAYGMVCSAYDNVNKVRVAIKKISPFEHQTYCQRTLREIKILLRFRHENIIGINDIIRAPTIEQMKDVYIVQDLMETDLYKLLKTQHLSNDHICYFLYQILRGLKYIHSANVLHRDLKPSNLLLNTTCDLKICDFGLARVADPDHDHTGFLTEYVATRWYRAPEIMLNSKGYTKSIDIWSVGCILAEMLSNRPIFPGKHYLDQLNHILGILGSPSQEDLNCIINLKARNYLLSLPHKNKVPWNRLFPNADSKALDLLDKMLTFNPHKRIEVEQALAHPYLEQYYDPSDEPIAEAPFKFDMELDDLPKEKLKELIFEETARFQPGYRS

Structure (SMILES) | IC50 [1] [nM] | IC50 [2] [nM]
COc1ccc([C@@H](NC(=O)c2cc(F)c3cnc(NC4CCOCC4)nc3c2)[C@@H]2CCCN2)cc1F (stereo in doubt) [I-25, 5-fluoro-2-(tetrahydropyran-4-ylamino)-quinazoline-7-carboxylic acid [(S)-(3-fluoro-4-methoxy-phenyl)-(R)-pyrrolidin-2-yl-methyl]-amide] | 9 | –
COc1ccc([C@H](NC(=O)c2cc(F)c3cnc(NC(C)C(F)(F)F)nc3c2)c2cnn(C)c2)cc1F (single isomer, unassigned) [II-1] | – | 6.2
O=C(N[C@H](c1ccc(Cl)c(F)c1)[C@@H]1CCCN1)c1ccc2cnc(NC3CCOCC3)nc2c1 (stereo in doubt) [I-23, 2-(tetrahydropyran-4-ylamino)-quinazoline-7-carboxylic acid [(S)-(4-chloro-3-fluoro-phenyl)-(R)-pyrrolidin-2-yl-methyl]-amide] | 2.3 | –
CCn1ccc([C@@H](NC(=O)c2ccc3cnc(NC4CCOCC4)nc3c2)c2ccc(Cl)c(F)c2)n1 [I-19, 2-(tetrahydropyran-4-ylamino)-quinazoline-7-carboxylic acid [(S)-(4-chloro-3-fluoro-phenyl)-(1-ethyl-1H-pyrazol-3-yl)-methyl]-amide] | 2.4 | –
C[C@@H](CO)Nc1ncc2ccc(C(=O)NC(c3ccc(Cl)c(F)c3)c3ccn(C)n3)cc2n1 (stereo partly drawn) [I-6, N-((4-chloro-3-fluorophenyl)(1-methyl-1H-pyrazol-3-yl)methyl)-2-((S)-1-hydroxypropan-2-ylamino)quinazoline-7-carboxamide] | 5 | –
O=C(N[C@H](c1ccc(C(F)(F)F)c(F)c1)[C@@H]1CCCN1)c1ccc2cnc(NC3CCOCC3)nc2c1 (stereo in doubt) [I-7, 2-(tetrahydropyran-4-ylamino)-quinazoline-7-carboxylic acid [(S)-(3-fluoro-4-trifluoromethyl-phenyl)-(R)-pyrrolidin-2-yl-methyl]-amide] | 1.8 | –
CC(C)Nc1ncc2ccc(C(=O)N[C@H](c3ccc(C(F)(F)F)c(F)c3)[C@@H]3CCCN3)cc2n1 (stereo in doubt) [I-5, 2-isopropylamino-quinazoline-7-carboxylic acid [(S)-(3-fluoro-4-trifluoromethyl-phenyl)-(R)-pyrrolidin-2-yl-methyl]-amide] | 2.3 | –
COc1ccc([C@@H](NC(=O)c2ccc3cnc(NC4CCOCC4)nc3c2)[C@@H]2CCCN2)cc1F (stereo in doubt) [I-24, 2-(tetrahydropyran-4-ylamino)-quinazoline-7-carboxylic acid [(S)-(3-fluoro-4-methoxy-phenyl)-(R)-pyrrolidin-2-yl-methyl]-amide] | 8.2 | –
COc1ccc([C@H](NC(=O)c2cc(F)c3cnc(NC(C)C(F)(F)F)nc3c2)c2cnn(C)c2)cc1F (single isomer, unassigned) [II-2] | – | 13.6
